We go through five compounds from ChEMBL document CHEMBL1201862, “PubChem BioAssay data set” (2004).

As a reminder, the IC50 is the concentration needed to halve the response being measured. The EC50 is the concentration that produces a half-maximal response. One may read the CC50 as the concentration at which the toxic effect on the cells reaches its halfway point.

The source made the active and inactive calls.

The target of assay [1] is Transitional endoplasmic reticulum ATPase (Homo sapiens, UniProt P55072, C522A). As to the kind of experiment: C522A mutant p97 ATPase inhibitors, dose response, counter-screen for p97 inhibitor project, biochemical, luminescence (AID 1544). In general terms: A counterscreen serves to expose hits that act by an unwanted route or on another target.
Chain of Transitional endoplasmic reticulum ATPase (Homo sapiens, UniProt P55072, C522A) (P55072 2-806 C522A limits assumed): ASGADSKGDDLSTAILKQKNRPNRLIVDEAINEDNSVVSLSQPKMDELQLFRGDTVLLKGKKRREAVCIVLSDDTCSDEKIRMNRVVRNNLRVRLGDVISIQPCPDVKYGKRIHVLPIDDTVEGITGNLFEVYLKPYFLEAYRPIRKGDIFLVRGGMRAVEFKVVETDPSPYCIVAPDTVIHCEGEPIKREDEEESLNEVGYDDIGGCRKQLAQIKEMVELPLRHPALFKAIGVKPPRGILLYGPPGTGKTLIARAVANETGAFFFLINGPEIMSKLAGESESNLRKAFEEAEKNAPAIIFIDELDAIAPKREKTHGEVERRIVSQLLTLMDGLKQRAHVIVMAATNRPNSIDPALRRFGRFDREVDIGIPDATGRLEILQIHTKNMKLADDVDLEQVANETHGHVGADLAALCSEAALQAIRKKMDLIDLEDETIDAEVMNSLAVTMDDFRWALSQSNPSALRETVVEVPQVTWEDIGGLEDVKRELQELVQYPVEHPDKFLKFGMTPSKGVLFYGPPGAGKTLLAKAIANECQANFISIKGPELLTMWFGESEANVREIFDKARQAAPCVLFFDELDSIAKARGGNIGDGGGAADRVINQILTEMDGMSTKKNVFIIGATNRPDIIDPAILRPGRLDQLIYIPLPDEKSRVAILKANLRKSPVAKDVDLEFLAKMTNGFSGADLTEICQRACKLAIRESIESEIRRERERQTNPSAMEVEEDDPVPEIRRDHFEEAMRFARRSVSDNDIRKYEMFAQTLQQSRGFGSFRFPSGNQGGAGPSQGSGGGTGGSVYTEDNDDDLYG
In assay [2] the target is Transitional endoplasmic reticulum ATPase (Homo sapiens, UniProt P55072). Nature of the assay: p97 ATPase inhibitors, dose response, biochemical (AID 1534).
Chain of Transitional endoplasmic reticulum ATPase (Homo sapiens, UniProt P55072) (P55072 whole entry): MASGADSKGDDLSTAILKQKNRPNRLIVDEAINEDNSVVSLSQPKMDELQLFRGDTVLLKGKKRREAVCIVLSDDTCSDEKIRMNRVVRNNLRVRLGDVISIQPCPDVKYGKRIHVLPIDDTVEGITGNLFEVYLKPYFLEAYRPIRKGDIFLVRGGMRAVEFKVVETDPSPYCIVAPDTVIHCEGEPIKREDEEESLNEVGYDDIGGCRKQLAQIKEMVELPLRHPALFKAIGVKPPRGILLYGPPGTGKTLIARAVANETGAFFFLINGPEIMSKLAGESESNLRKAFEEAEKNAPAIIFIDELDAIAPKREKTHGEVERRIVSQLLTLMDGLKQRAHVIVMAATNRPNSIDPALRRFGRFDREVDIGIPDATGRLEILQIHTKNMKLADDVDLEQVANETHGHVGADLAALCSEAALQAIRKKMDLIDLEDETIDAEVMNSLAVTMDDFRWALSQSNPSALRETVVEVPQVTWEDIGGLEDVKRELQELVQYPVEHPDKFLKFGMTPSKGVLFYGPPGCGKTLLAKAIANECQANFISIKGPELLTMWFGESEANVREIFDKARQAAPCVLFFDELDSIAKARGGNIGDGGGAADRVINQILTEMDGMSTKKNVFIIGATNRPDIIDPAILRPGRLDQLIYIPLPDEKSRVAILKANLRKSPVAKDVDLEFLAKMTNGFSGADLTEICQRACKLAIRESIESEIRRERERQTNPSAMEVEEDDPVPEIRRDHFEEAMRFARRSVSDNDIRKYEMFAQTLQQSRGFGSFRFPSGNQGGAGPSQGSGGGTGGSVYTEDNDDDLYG
Assay [3] deals with T1, Neuropeptide Y receptor type 1 (Homo sapiens, UniProt P25929).
T1 sequence (P25929 whole entry): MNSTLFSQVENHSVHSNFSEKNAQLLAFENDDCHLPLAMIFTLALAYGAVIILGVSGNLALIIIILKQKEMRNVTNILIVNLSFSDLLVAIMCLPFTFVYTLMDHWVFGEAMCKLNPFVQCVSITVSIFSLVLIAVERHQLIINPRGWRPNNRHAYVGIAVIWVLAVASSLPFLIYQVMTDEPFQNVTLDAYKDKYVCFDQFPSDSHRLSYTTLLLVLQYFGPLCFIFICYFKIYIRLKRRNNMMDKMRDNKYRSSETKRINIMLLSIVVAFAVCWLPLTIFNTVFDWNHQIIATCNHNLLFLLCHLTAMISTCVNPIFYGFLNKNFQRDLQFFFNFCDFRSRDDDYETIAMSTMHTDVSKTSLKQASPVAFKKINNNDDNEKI
Nature of the assay: Fluorescence-based counterscreen for agonists of NPY-Y2: cell-based high-throughput dose response assay for agonists of NPY-Y1. The assay is classed as functional.

For a further assay, the system named is HEK293. As to the kind of experiment: Fluorescence-based counterscreen for potentiators or agonists of NPY-Y2: cell-based high-throughput dose response assay to identify inhibitors of cyclic nucleotide gated ion channel (CNGC) activity. In this assay, the parental HEK293 cell line transfected with a cyclic-nucleotide gated ion channel (CNGC)-based cAMP sensor is used to measure inhibition of isoproterenol-induced CNGC activity by test compound. The format is functional. The conditions noted are these: Homo sapiens.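 Note: stimulus is 1 µM isoproterenol at EC100 plus PDE inhibitor Ro 20-1724 at 25 µM.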

Assay [4] concerns the target T2, Neuropeptide Y receptor type 2 (Homo sapiens, UniProt P49146).
T2 sequence (P49146 whole entry): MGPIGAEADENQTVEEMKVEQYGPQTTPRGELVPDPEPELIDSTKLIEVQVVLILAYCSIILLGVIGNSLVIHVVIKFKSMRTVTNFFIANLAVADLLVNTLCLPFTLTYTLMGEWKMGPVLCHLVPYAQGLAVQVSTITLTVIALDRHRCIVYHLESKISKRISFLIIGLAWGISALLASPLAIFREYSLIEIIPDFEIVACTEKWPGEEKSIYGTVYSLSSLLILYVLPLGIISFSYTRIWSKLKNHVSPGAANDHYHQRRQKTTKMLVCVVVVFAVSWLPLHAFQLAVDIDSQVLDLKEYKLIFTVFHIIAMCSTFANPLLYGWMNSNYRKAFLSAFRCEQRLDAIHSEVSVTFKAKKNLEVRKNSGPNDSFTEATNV
Nature of the assay: Fluorescence-based cell-based high-throughput dose response assay for agonists of NPY-Y2. [Related pubchem assays: 1703 (Screening assay (CNGC inhibitors).), 1359 (Screening assay (NPY-Y2 potentiators or agonists).), 1304 (Screening assay (NPY-Y1 potentiators or agonists).), 1710 (Screening assay (NPY-Y2 agonists).), 1791 (Summary AID.)]. The format is functional.

Assay [5] addresses Mothers against decapentaplegic homolog 3 (Homo sapiens, UniProt P84022). As to the kind of experiment: Smad3 binding inhibitors, lysate ELISA, dose response, cell lysate, secondary confirmation, chemiluminescent ELISA, HEK293 lysate (AID 1058). The assay is classed as functional. (ELISA stands for enzyme-linked immunosorbent assay.)
A short description of assay [6]: A Cell Based Secondary Assay To Explore Cytotoxicity of Compounds that Sensitize Mycobacterium Tuberculosis to Beta-Lactam Antibiotics. The assay is classed as functional.
In assay [7] the target is Lysosomal acid glucosylceramidase (Homo sapiens, UniProt P04062). Nature of the assay: Dose response cell-based high throughput screening assay to identify enhancers of beta-glucosidase activity. [Related pubchem assays: 784 ]. The format is functional.
Chain of Lysosomal acid glucosylceramidase (P04062 whole entry): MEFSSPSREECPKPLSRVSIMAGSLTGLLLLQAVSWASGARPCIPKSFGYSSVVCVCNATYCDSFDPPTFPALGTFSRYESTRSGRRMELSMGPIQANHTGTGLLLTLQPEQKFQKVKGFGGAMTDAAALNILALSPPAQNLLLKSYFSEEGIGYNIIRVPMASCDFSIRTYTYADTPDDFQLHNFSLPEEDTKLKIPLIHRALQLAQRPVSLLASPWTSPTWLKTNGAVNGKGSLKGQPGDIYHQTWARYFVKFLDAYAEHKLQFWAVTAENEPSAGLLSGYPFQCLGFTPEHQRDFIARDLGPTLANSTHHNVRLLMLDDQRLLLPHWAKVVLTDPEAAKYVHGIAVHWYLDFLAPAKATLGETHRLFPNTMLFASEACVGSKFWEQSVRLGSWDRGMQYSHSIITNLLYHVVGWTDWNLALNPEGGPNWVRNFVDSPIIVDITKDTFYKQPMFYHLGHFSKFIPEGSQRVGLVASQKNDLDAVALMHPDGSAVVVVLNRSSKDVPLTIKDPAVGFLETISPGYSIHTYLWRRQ

Chain of Mothers against decapentaplegic homolog 3 (P84022 whole entry): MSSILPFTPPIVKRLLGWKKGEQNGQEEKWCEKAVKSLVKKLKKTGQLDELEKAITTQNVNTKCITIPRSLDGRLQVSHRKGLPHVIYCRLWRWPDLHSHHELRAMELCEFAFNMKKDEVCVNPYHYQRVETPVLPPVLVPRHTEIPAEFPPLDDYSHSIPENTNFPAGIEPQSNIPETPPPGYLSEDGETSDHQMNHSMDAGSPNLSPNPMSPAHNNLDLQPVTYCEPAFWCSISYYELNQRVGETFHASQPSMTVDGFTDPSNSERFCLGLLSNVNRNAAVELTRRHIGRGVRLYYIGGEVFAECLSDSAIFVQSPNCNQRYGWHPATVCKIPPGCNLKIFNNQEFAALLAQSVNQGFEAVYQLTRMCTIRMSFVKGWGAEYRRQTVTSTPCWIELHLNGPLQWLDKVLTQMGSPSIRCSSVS

`COc1ccc2ccccc2c1/C=N/NC(=O)c1sc(N)c(C#N)c1C`: the IC50 in assay [1] is > 50 µM (not active); in assay [2], 2.58 µM (active).

Turning to `CC1=NC(=O)C(N=Nc2ccccc2C(=O)O)N1c1ccccc1` (stereo not drawn), the EC50 in assay [3] was 9.92 µM (active); with HEK293 it was > 3.94 µM (active); in assay [4] it was 16.9 µM (not active).

With `COc1cccc(C(c2cc3c(cc2O)OCO3)N2CCOCC2)c1O` (stereo not drawn), the IC50 in assay [5] is listed as > 40 µM (not active).

For `CCOc1ccc(/C=N/NC(=O)c2ccccc2O)cc1CN1CC2CC(C1)c1cccc(=O)n1C2` (stereo not drawn), the cytotoxic concentration (CC50) in assay [6] is 23 µM (active).

Regarding `CC(C)CCn1nnnc1C(c1ccccc1)N1CCC(C(N)=O)CC1` (stereo not drawn), the EC50 in assay [7] is on record as > 10 µM (not active).
